Assays:
Route of clearance = conditions: in vivo
[1] = test system: patients with mild to moderate Alzheimer's disease; test: ADAS-cog11 change over 65 weeks by plasma exposure; type: in vivo, human; conditions: for ADAS-cog Difference ± SEM: split by 8 mg/day Cmax,ss median
Text: (§1) Pharmacokinetic analyses were undertaken using plasma concentration data from patients who participated in either of two completed Phase III trials which have been described previously [[35, 36]]. In brief, the first (TRx-237-015) was a 15-month study which recruited 890 patients from 115 sites across 16 countries in EU, North America, Asia, and Russia. Patients had to be <90 years of age and have a diagnosis of mild to moderate probable AD according to National Institute of Aging (NIA) and Alzheimer’s Association (AA) criteria and a Mini-Mental State Examination (MMSE) score of 14–26 inclusive and with a Clinical Dementia Rating (CDR) total score of 1 or 2. The second study (TRx-237-005) was an 18-month trial which recruited 800 patients from 108 sites in Canada, United States, Australia, and Europe. Patients had to meet the same age and diagnosis criteria, except that they were required to have a MMSE score of 20–26 inclusive and a CDR total score of 0.5 or 1.0. Concomitant use of AChEIs or memantine (or both) was permitted in both studies provided this was at a stable dose for at least 18 weeks before randomization. Concomitant use of serotonergic antidepressant, antipsychotic (except clozapine or olanzapine), and sedative medications was also permitted at stable doses where clinically feasible. Patients were randomly assigned to receive LMTM at doses of 250, 150, or 8 mg/day in Study 015 and doses of 200 or 8 mg/day in Study TRx-237-005. Randomization in both studies was stratified according to geographical region, use of AD-labelled co-medications, and severity of AD. The co-primary outcomes in both studies were the Alzheimer’s Disease Assessment Scale–cognitive subscale, 11-item version (ADAS-cog11) and the Alzheimer’s Disease Co-operative Study–Activities of Daily Living, 23-item version (ADCS-ADL23) scale measured at baseline and every 3 months. MRI scans were undertaken at screening or baseline and at 3-month intervals. MRI acquisition protocol and parameters were standardized across sites and all data were centrally collected, quality-controlled, and analyzed blind by an imaging core lab (Bioclinica). Volumetric data were used to measure changes in whole brain volume (WBV, which provides a measure of the volume of grey and white matter), lateral ventricular volume (LVV), and other regional volumes including hippocampus, although only the global measures are reported in the present study. Baseline volumes were assessed using FreeSurfer 5.3, and volume change was assessed using Boundary Shift Integral and Tensor Based Morphometry for regional structures. Full details and study protocols for these two trials are available [[35, 36]].
The exposure-response analyses were conducted independently by ICPD and verified by TauRx. As a first step in the analysis, the concentration-response data were reviewed for ADAS-cog11 decline at week 65 in all patients receiving LMTM at a dose of 8 mg/day using a sigmoid Emax (maximum response) model not requiring assumptions regarding exposure subgroups. The model was fitted using covariates geographical region, CDR at baseline, co-medication status, and baseline ADAS-cog11. A 90% bootstrap confidence interval was also calculated.
(§2) Having shown a concentration-dependent response for cognitive decline, a mixed-effects model for repeated measures analysis was used to characterize further the relationship between each efficacy endpoint and parent MT plasma exposure (steady state Cmax,ss) according to the following formula: pharmacological activity∼plasma-level×visit+co-medication-status×visit+co-medication-status×plasma-level+geographical-region+CDR-at-baseline+baseline-score×visit
The following terms were categorical variables in the models: plasma exposure (Cmax,ss) (7 levels), visit (5 levels), co-medication status with AD drugs (2 levels), geographical region (2 levels), and CDR at baseline (3 levels). […]

[2] = test system: patients with mild to moderate Alzheimer's disease; test: MRI lateral ventricular volume (LVV) change over 65 weeks by plasma exposure; type: in vivo, human; conditions: for LVV Difference ± SEM: split by 8 mg/day Cmax,ss median
Text: as §1, §2
(§3) The following terms were categorical variables in the models: plasma exposure (Cmax,ss) (7 levels), visit (5 levels), co-medication status with AD drugs (2 levels), geographical region (2 levels), and CDR at baseline (3 levels). For the longitudinal analyses, plasma level was described by two levels (above or below threshold).

[3] = test system: patients with mild to moderate Alzheimer's disease; test: MRI whole brain volume (WBV) change over 65 weeks by plasma exposure; type: in vivo, human; conditions: for WBV Difference ± SEM: split by 8 mg/day Cmax,ss median
Text: as §1, §2, §3

[4] = test system: tau transgenic mouse model for AD; design: method as in PMID 32091331; conditions: 5 and 15 mg/kg/day; cited from earlier work
[5] = test system: patients with mild to moderate Alzheimer's disease; test: Hill equation concentration-response analysis (ADAS-cog11 and WBV); type: in vivo, human
Text: In addition to the exposure-response analyses described above, a further standard pharmacological concentration-response analysis was undertaken using the Hill equation [40] applied to the ADAS-cog11 and whole brain volume data to characterize the overall response profile quantitatively and to investigate the lower concentration limit of the treatment effect. The Hill equation was applied under the assumption of non-cooperativity and was applied with an additional linear term to permit trends occurring at high concentrations to be included in the model. […] This was fitted separately for LMTM added to approved symptomatic treatments and for those who took the drug as monotherapy, with parameters estimated using a non-linear least squares estimator.
In order to relate Cmax,ss values to theoretical doses, a linear model was fitted to the mean plasma concentrations at the 8, 150, 200 and 250 mg/day doses: estimated dose=22.22×(Cmax, ss-0.016) where dose is in mg/day and Cmax,ss is ng/ml units.

[6] = test system: patients with mild to moderate Alzheimer's disease; test: ADCS-ADL23 change over 65 weeks by plasma exposure; type: in vivo, human; conditions: for ADCS-ADL Difference ± SEM: split by 8 mg/day Cmax,ss median
Text: as §1, §2, §3

[7] = LMTM 8 mg/day as add-on therapy, Cmax,ss above vs below 0.373 ng/ml
[8] = LMTM 8 mg/day as monotherapy, Cmax,ss above vs below 0.373 ng/ml
[9] = LMTM 8 mg/day, low Cmax add-on versus high Cmax monotherapy
[10] = all patients, high vs low exposure split by Cmax,ss 0.373 ng/ml, 65 weeks
[11] = patients receiving LMTM 8 mg/day, split by Cmax,ss 0.373 ng/ml, 65 weeks

With CN(C)c1ccc2c(c1)Sc1cc(N(C)C)ccc1N2 [LMTM, leuco-methylthioninium bis(hydromethanesulphonate)] as the compound, how does the “share of clearance via the kidneys” value (Route of clearance) read?
Its value is 70%.

What about the “ADAS-cog11 Difference±SEM in change from baseline” value [1, 7] of the same compound?
The value was “–3.52±0.78”.

What about the “ADAS-cog11 Difference±SEM in change from baseline” value [1, 8] of the same compound?
Its value is “–2.60±1.16”.

What about the “ADAS-cog Difference ± SEM” value ([1]; LMTM 8 mg/day as monotherapy) of the same compound?
Its value is -2.75 ± 1.09.

And the “ADAS-cog11 Difference±SEM in change from baseline” value [1, 9]?
The value was “–7.53±1.22”.

And the “ADAS-cog11 Difference±SEM in change from baseline” value [1, 10]?
The value was “–2.66±0.69”.

What about the “ADAS-cog Difference ± SEM” value ([1]; all patients) of the same compound?
Its value is -1.91 ± 0.59.

What about the “ADAS-cog11 Difference±SEM in change from baseline” value [1, 11] of the same compound?
The value was “–3.41±0.76”.

What about the “LVV Difference±SEM in change from baseline” value (from here on “LVV Difference±SEM in change”) [2, 7] of the same compound?
Its value is “–1.81±0.39 cm^3”.

What about the “LVV Difference±SEM in change” value [2, 8] of the same compound?
The value was “–1.60±0.46 cm^3”.

And the “LVV Difference ± SEM” value ([2]; LMTM 8 mg/day as monotherapy)?
The value was -0.82 ± 0.44 cm3.

What about the “LVV Difference±SEM in change” value [2, 9] of the same compound?
The value was “–3.15±0.62 cm^3”.

And the “LVV Difference±SEM in change” value [2, 10]?
Its value is “–1.52±0.34 cm^3”.

What about the “LVV Difference ± SEM” value ([2]; all patients) of the same compound?
The value was -0.80 ± 0.30 cm3.

What about the “LVV Difference±SEM in change” value [2, 11] of the same compound?
The value was “–1.76±0.38 cm^3”.

What about the “WBV Difference±SEM in change from baseline” value (shortened to “WBV Difference±SEM in change”) [3, 7] of the same compound?
Its value is 4.69±1.21 cm^3.

What about the “WBV Difference ± SEM” value ([3]; LMTM 8 mg/day as add-on therapy) of the same compound?
Its value is 4.02 ± 1.17 cm3.

And the “WBV Difference±SEM in change” value [3, 8]?
Its value is 2.76±1.66 cm^3.

And the “WBV Difference ± SEM” value ([3]; LMTM 8 mg/day as monotherapy)?
Its value is 1.07 ± 1.58 cm3.

And the “WBV Difference±SEM in change” value [3, 9]?
The value was 11.54±1.87 cm^3.

What about the “WBV Difference±SEM in change” value [3, 10] of the same compound?
The value was 3.55±1.10 cm^3.

And the “WBV Difference ± SEM” value ([3]; all patients)?
The value was 2.47 ± 0.92 cm3.

And the “WBV Difference±SEM in change” value [3, 11]?
Its value is 4.39±1.18 cm^3.

What about the “Complex IV activity in brain mitochondria” value [4] of the same compound?
The value was “increase Complex IV activity in brain mitochondria”.

And the “acetylcholine levels in hippocampus” value [4]?
The value was “increase acetylcholine levels in hippocampus”.

What about the “choline acetyltransferase activity in basal forebrain” value [4] of the same compound?
The value was “restore choline acetyltransferase activity in basal forebrain”.

What about the “glutamate release from brain synaptosomes” value [4] of the same compound?
Its value is “reverse impairment in glutamate release from brain synaptosomes”.

And the “maximum predicted pharmacological activity as add-on therapy relative to monotherapy” value ([5]; Hill equation analysis)?
The value was “about half”.

And the “plasma concentrations at which treatment effects reach a plateau” value ([5]; Hill equation estimates)?
The value was 0.9 to 4.1 ng/mL.

What about the “theoretical doses corresponding to the plateau” value ([5]; Hill equation estimates) of the same compound?
The value was 16 to 80 mg/day.

And the “lower limit of drug activity (plasma Cmax,ss)” value ([5]; monotherapy and add-on therapy, cognitive decline and whole brain atrophy)?
Its value is “approximately 0.29 ng/ml”.

And the “ADCS-ADL23 Difference±SEM in change from baseline” value [6, 7]?
The value was 1.32±1.04.

And the “ADCS-ADL23 Difference±SEM in change from baseline” value [6, 8]?
Its value is 0.46±1.47.

And the “ADCS-ADL Difference ± SEM” value ([6]; LMTM 8 mg/day as monotherapy)?
The value was 0.52 ± 1.38.

What about the “ADCS-ADL23 Difference±SEM in change from baseline” value [6, 9] of the same compound?
The value was 6.14±1.64.

What about the “ADCS-ADL23 Difference±SEM in change from baseline” value [6, 10] of the same compound?
Its value is 0.54±0.94.

And the “ADCS-ADL Difference ± SEM” value ([6]; all patients)?
The value was 0.21 ± 0.81.

What about the “ADCS-ADL23 Difference±SEM in change from baseline” value [6, 11] of the same compound?
Its value is 1.22±1.01.
